In publication PMC9894594, “Progressive Acceleration of Insulin Exposure Over 7 Days of Infusion Set Wear” (Diabetes Technology & Therapeutics, 2023):

Assays:
Assay type in all cases: in vivo, human (participants with type 1 diabetes mellitus)
[1] = Euglycemic clamp pharmacodynamics (glucose infusion rate) after insulin lispro pump bolus; parameters: t50% (GIR, early) (time to reach 50% GIRmax before peak) / t50% (GIR, late) (time to reach 50% GIRmax after peak): unit: min; details: 0.15 U/kg SC bolus by pump, euglycemic clamp 300 min, median (25th–75th)
Source text: (§1) We performed a prospectively enrolled randomized sequence two-way crossover study of the investigational CBX (Capillary Biomedical, Inc., Irvine, CA) and a commercial angled Teflon (MiniMed™ Silhouette™; Medtronic Diabetes Care, Northridge, CA; indicated for 3-day use) IIS for two weeklong home use periods with four in-patient euglycemic clamp sessions during each of the 7-day periods. Between the two periods, there was a wash out of 14 days (Supplementary Fig. S1).
(§2) Euglycemic clamp experiments were performed at AMCR Institute (in Escondido, CA.) on days 0, 3, 5, and 7 in each treatment period (eight clamps per participant). Participants were admitted to AMCR the evening before the clamp study and glucose was stabilized overnight with intravenous (IV) insulin or glucose as needed. Personal pumps were set to 0.1 U/h overnight and throughout the clamp experiment. Once glucose was stable (95 ± 15 mg/dL) in the morning, IV insulin was stopped 20 min before administering a bolus of 0.15 U/kg of insulin lispro (Eli Lilly, Indianapolis, IN) by pump. Glucose was clamped at 95 ± 15 mg/dL for 300 min or terminated early if runaway hyperglycemia occurred.
(§3) PK parameters (area under the insulin concentration curve [AUC] over the first 60 or 300 min, respectively; time to maximum insulin concentration [tmax]; maximum insulin concentration [Cmax]; time to half-maximum insulin concentration, early and late [t50%], and mean residence time [MRT]) were tested for treatment effects. […] Estimated means were then back transformed and the ratio between treatments/days (equality means a ratio of 1) tested for significance using mixed model for repeated measures (two-sided, α = 0.05). For simplicity reasons, all data are presented as median (25th–75th percentiles) or mean ± standard deviation.

[2] = Adverse events during the crossover clamp study; details: both IIS types
Source text: as §1
WCG IRB approved the protocol and all associated documents used by participants before initiation of the study (Study No. 1283383) and during the study were registered in clinicaltrials.gov (NCT04398030). Participants aged 18–70 years, diagnosed with type 1 diabetes mellitus, and using rapid-acting insulin analog delivered through a Medtronic MiniMed insulin pump (model 530 or higher; Medtronic Diabetes Care) for at least 6 months were enrolled.

[3] = Insulin lispro pharmacokinetics after pump bolus during euglycemic clamp over 7 days of infusion set wear; details: CBX group
Source text: as §1, §2
Per participant and clamp, 30 plasma samples were collected in regular intervals and stored at −70°C. Samples were analyzed elsewhere (Northern Lights Mercodia Lispro ELISA, Mercodia AB, Uppsala, Sweden; lowest limit of quantification (LLOQ) = 1.0 mU/L, 94% accuracy[7]). Owing to the small sample size and the intrinsically greater variability in pharmacodynamic measures, the PK results are the only results detailed in this report.
as §3

[4] = day 0 of IIS wear, CBX IIS, n = 6
[5] = day 0 of IIS wear, Control IIS, n = 6
[6] = day 3 of IIS wear, CBX IIS, n = 6
[7] = day 3 of IIS wear, Control IIS, n = 6
[8] = day 5 of IIS wear, CBX IIS, n = 6
[9] = day 5 of IIS wear, Control IIS, n = 6
[10] = day 7 of IIS wear, CBX IIS, n = 5
[11] = day 7 of IIS wear, Control IIS, n = 5

insulin lispro
AUC0–300(GIR) (area under the GIR curve from 0 to 300 min) [1, 4]: 1205 (642.1–1219) mg/kg
GIRmax (maximum glucose infusion rate) [1, 4]: 8.4 (4.5–9.1) mg/(kg·min)
Onset of action [1, 4]: 28.9 (21.4–39.0) min
t50% (GIR, early) (time to reach 50% GIRmax before peak) [1, 4]: 48.7 (25.7–63.5)
t50% (GIR, late) (time to reach 50% GIRmax after peak) [1, 4]: 187.4 (160.4–234.3)
tmax(GIR) (time to reach GIRmax) [1, 4]: 140.0 (80.0–170.0) min
AUC0–300(GIR) (area under the GIR curve from 0 to 300 min) [1, 5]: 1330 (790.6–1539) mg/kg
GIRmax (maximum glucose infusion rate) [1, 5]: 10.2 (7.7–11.7) mg/(kg·min)
Onset of action [1, 5]: 76.1 (56.6–106.4) min
t50% (GIR, early) (time to reach 50% GIRmax before peak) [1, 5]: 67.6 (43.0–93.5)
t50% (GIR, late) (time to reach 50% GIRmax after peak) [1, 5]: 182.6 (164.3–247.3)
tmax(GIR) (time to reach GIRmax) [1, 5]: 145.0 (90.0–190.0) min
AUC0–300(GIR) (area under the GIR curve from 0 to 300 min) [1, 6]: 719.6 (652.3–864.3) mg/kg
GIRmax (maximum glucose infusion rate) [1, 6]: 7.41 (5.7–9.5) mg/(kg·min)
Onset of action [1, 6]: 28.2 (12.1–34.0) min
t50% (GIR, early) (time to reach 50% GIRmax before peak) [1, 6]: 49.0 (37.7–95.0)
t50% (GIR, late) (time to reach 50% GIRmax after peak) [1, 6]: 157.6 (97.5–179.0)
tmax(GIR) (time to reach GIRmax) [1, 6]: 65.00 (60.0–120.0) min
AUC0–300(GIR) (area under the GIR curve from 0 to 300 min) [1, 7]: 743.1 (585.5–1268) mg/kg
GIRmax (maximum glucose infusion rate) [1, 7]: 5.2 (5.0–13.5) mg/(kg·min)
Onset of action [1, 7]: 35.4 (29.0–41.4) min
t50% (GIR, early) (time to reach 50% GIRmax before peak) [1, 7]: 51.3 (44.9–55.6)
t50% (GIR, late) (time to reach 50% GIRmax after peak) [1, 7]: 147.8 (88.3–177.7)
tmax(GIR) (time to reach GIRmax) [1, 7]: 82.0 (60.0–110.0) min
AUC0–300(GIR) (area under the GIR curve from 0 to 300 min) [1, 8]: 663.5 (609.8–1332) mg/kg
GIRmax (maximum glucose infusion rate) [1, 8]: 8.1 (6.5–10.9) mg/(kg·min)
Onset of action [1, 8]: 21.1 (18.4–23.8) min
t50% (GIR, early) (time to reach 50% GIRmax before peak) [1, 8]: 33.3 (28.7–37.0)
t50% (GIR, late) (time to reach 50% GIRmax after peak) [1, 8]: 92.6 (77.1–147.0)
tmax(GIR) (time to reach GIRmax) [1, 8]: 62.5 (50.0–70.0) min
AUC0–300(GIR) (area under the GIR curve from 0 to 300 min) [1, 9]: 695.2 (585.4–1395) mg/kg
GIRmax (maximum glucose infusion rate) [1, 9]: 9.1 (7.3–10.8) mg/(kg·min)
Onset of action [1, 9]: 20.0 (16.4–23.0) min
t50% (GIR, early) (time to reach 50% GIRmax before peak) [1, 9]: 38.8 (30.6–39.1)
t50% (GIR, late) (time to reach 50% GIRmax after peak) [1, 9]: 106.8 (95.4–140.2)
tmax(GIR) (time to reach GIRmax) [1, 9]: 59.0 (55.0–60.0) min
AUC0–300(GIR) (area under the GIR curve from 0 to 300 min) [1, 10]: 883.0 (380.6–908.4) mg/kg
GIRmax (maximum glucose infusion rate) [1, 10]: 10.1 (4.9–11.3) mg/(kg·min)
Onset of action [1, 10]: 18.8 (16.2–27.0) min
t50% (GIR, early) (time to reach 50% GIRmax before peak) [1, 10]: 32.2 (28.0–36.0)
t50% (GIR, late) (time to reach 50% GIRmax after peak) [1, 10]: 107.5 (105.9–117.8)
tmax(GIR) (time to reach GIRmax) [1, 10]: 55.0 (50.0–55.0) min
AUC0–300(GIR) (area under the GIR curve from 0 to 300 min) [1, 11]: 687.7 (386.7–1039) mg/kg
GIRmax (maximum glucose infusion rate) [1, 11]: 9.2 (6.9–11.5) mg/(kg·min)
Onset of action [1, 11]: 27.5 (14.6–32.0) min
t50% (GIR, early) (time to reach 50% GIRmax before peak) [1, 11]: 48.1 (23.2–48.1)
t50% (GIR, late) (time to reach 50% GIRmax after peak) [1, 11]: 96.7 (87.1–109.5)
tmax(GIR) (time to reach GIRmax) [1, 11]: 70.0 (60.0–70.0) min
severe or serious adverse events [2]: No severe or serious adverse events
acceleration of median tmax by day 7 vs day 0 [3]: 61%
decrease of median MRT from day 0 to day 7 [3]: 42%
increase of median early exposure (AUC0–60) by day 7 vs day 0 [3]: 59%
